Source: article PMC4628560 (Nature cell biology, 2015)
Like-named read-outs stand apart in the source and are kept apart here.

How the values were obtained:
[1] = molecular target: T1, 6-phosphogluconate dehydrogenase (6PGD) (Homo sapiens, UniProt P52209); assay: tryptophan fluorescence-based binding assay with purified human 6PGD
T1 sequence (P52209 1-483): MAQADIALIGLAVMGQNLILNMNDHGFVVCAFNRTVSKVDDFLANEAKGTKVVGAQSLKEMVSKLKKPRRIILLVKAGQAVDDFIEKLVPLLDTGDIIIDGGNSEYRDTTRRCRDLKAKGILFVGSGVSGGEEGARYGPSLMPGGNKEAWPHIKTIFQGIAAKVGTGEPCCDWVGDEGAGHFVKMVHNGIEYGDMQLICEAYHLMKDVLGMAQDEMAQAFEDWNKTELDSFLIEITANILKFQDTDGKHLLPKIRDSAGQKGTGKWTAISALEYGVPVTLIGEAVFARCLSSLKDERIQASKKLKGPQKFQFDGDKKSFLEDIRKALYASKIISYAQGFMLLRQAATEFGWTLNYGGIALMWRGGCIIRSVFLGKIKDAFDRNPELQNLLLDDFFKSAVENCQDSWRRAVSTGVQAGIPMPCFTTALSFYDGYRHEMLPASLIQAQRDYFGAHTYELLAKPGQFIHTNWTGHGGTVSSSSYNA

[2] = molecular target: T1, 6-phosphogluconate dehydrogenase (6PGD); assay: as above; remark: listed apart in the source

Kd [1] [µM] | Kd [2] [µM] | SMILES
26 | – | COc1cc(O)c2c(c1)C(=O)c1cc(C)cc(O)c1C2=O [Physcion, 1,8-Dihydroxy-3-methoxy-6-methyl-anthraquinone]
– | 17.1 | COc1cccc2c1C(=O)c1c(O)cccc1C2=O [S3, 1-Hydroxy-8-methoxy-anthraquinon]
